Laboratory results from patent US8828997B2, “2,3-dihydro-1H-imidazo(1,2-a)pyrimidin-5-one derivatives, preparation thereof, and pharmaceutical use thereof” (Sanofi, priority 2009, dated 2014).

Experiments:
[1] = system: AKT protein phosphorylated on serine 473 (pAKT-S473) in PC3 human prostate carcinoma cells; assay: pAKT expression in PC3 human prostate carcinoma cells measured by western blotting (test A); format: cell-based; conditions: PC-3, 1 to 2 h incubation, absolute IC50
Experimental: The inhibitory activity of the molecules on AKT phosphorylation is measured either by western blotting using the technique described below, or by the MSD Multi-spot Biomarker detection technique from Meso Scale Discovery also described below.
Study of pAKT Expression in PC3 Human Prostate Carcinoma Cells Measured by Western Blotting (test A):
This test is based on measuring the expression of the AKT protein phosphorylated on serine 473. The phosphorylation of AKT (pAKT) is measured by western blotting in the PC3 human prostate carcinoma line (ATCC CRL-1435), using an antibody that specifically recognises pAKT-S473.
On day 1, the PC3 cells are seeded into 6-well plates (TPP, #92006) at the concentration of 0.8×10^6 cells/well in 1800 μl of DMEM medium (DMEM Gibco #11960-044) containing 10% of foetal calf serum (SVF Gibco, #10500-056) and 1% glutamine (L-Glu Gibco #25030-024), and incubated at 37° C., 5% CO2, overnight.
On day 2, the cells are incubated in the presence or absence of the test products for 1 to 2 hours at 37° C. in the presence of 5% CO2. The molecules, diluted in dimethyl sulphoxide (DMSO Sigma #D2650), are added from a 10-times concentrated stock solution, the final percentage of DMSO being 0.1%. The molecules are tested either at a single concentration of less than or equal to 10 μM, or at increasing concentrations in a range that can extend from less than 1 nM to 10 μM.
After this incubation, the cells are lysed for the preparation of the proteins. After the culture medium has been drawn off, the cells are rinsed with 1 ml of PBS (DPBS Gibco, #14190-094), recovered by scraping in 200 μl of complete HNTG buffer and transferred into a 96-well plate (Greiner #651201), and lysed for 1 h on ice. The HNTG buffer is composed of the following mixture: 50 mM hepes, 150 mM NaCl, 1% triton, 10% glycerol, with extemporaneous addition of one Mini Protease Inhibitor Cocktail tablet (Roche 1836153) and of one Phosphatase Inhibitor Cocktail tablet (Roche104906837001) per 10 ml of buffer.
The lysate is centrifuged for 10 min at 6000 rpm. 155 μl of supernatant are recovered. 150 μl are incubated for denaturation for 5 min at 95° C. in the presence of 4× NuPAGE LDS Sample Buffer diluted 4-fold (InVitrogen ref NP0007) and of 10× NuPAGE Sample Reducing Agent diluted 10-fold (InVitrogen ref NP0009). These samples are then frozen at −20° C. 5 μl are assayed by the microBCA technique according to the technical bulletin of the MicroBCA Protein Assay Kit (Pierce #23235).
For protein separation, 20 μg of proteins are loaded on to a NU-PAGE 4-12% Bis Tris Gel 12 well (InVitrogen ref NP0322BOX) and the migration is carried out for 1 h 30 in 20× NU-PAGE MOPS SDS Running Buffer diluted 20-fold (InVitrogen ref NP0001), at 150 volts.
The gel is then transferred on to an Invitrolon PVDF membrane (Invitrogen #LC2007) permeabilised before and after a few seconds in ethanol (Ethanol Fischer Scientific #E/0600DF/15).
The transfer is carried out in a Biorad tank at 30 volts overnight or at 60 volts for 3 hours, in the presence of 20× NUPAGE Transfer Buffer diluted 20-fold (InVitrogen ref NP0006).
The membrane is then saturated in saturating solution composed of TBS (10× Tris Buffered Saline, Sigma #T5912, diluted 10-fold), 0.1% Tween 20 (Sigma #P5927) and 3% BSA (Bovine Albumin Serum Fraction V, Sigma #A4503) for 6 h after overnight transfer or else for 1 h after transfer for a period of 3 h.
The primary antibodies are diluted to 1/1000 for the anti-phospho AKT-Ser473 antibody (1931-12, rabbit monoclonal, cat#4058 from Cell Signaling Technology Abcam), in saturating solution composed of PBS, 0.1% Tween 20 and 3% BSA, and then shaken overnight at 4° C.
Two rinses for 5 min in washing solution composed of TBS and 0.1% Tween 20 are carried out before hybridisation of the secondary antibodies. […]

[2] = system: translocation of the LC3 protein in Hela GFP-LC3 cells; assay: Translocation of the LC3 protein in Hela human cells measured by image analysis cytometry (test C, autophagy); format: cell-based; conditions: Homo sapiens, HeLa, 2 h, EBSS + 10 μM hydroxychloroquine, cells with LC3 granulations, absolute IC50
Outline: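 HeLa clone stably expressing GFP-LC3, starved in EBSS with 10 μM hydroxychloroquine plus compound (10 nM to 1 μM range, 0.1% DMSO) for 2 h at 37 °C. After PFA fixation and Hoechst staining, LC3 translocation read by image analysis cytometry; IC50 from dose-response curves, mean of 2 independent experiments.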

IC50 [1]: 100 nM
IC50 [2]: 44 nM
Compound: COc1ccc(CCN2c3nc(N4CCOCC4)cc(=O)n3C[C@@]2(C)C(F)(F)F)cc1 [Example 1, (S)-1-[2-(4-Methoxyphenyl)ethyl]-2-methyl-7-morpholin-4-yl-2-trifluoromethyl-2,3-dihydro-1H-imidazo[1,2-a]pyrimidin-5-one]
